Data published in US8952024B2, “Herbicidal pyrimidone derivatives” (E I du Pont de Nemours and Company, priority 2009, dated 2015).

Key:
Format in all cases: in vivo
[1] = test system: barnyardgrass (Echinochloa crus-galli); test: Test A pre-/postemergence plant response; details: for Barnyardgrass plant response rating: visual injury, 0 to 100 scale (0 no effect, 100 complete control), approx. ten days
How it was run: (§1)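 Both pre- and postemergence treatments are applied simultaneously, using chemicals formulated in a non-phytotoxic solvent mixture with surfactant. Postemergence plants are 2–10 cm high with one to two leaves. After approximately ten days in a greenhouse, injury is scored visually from 0 (none) to 100 (complete control) relative to untreated plants.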

corn (Zea mays) = test: Test A pre-/postemergence plant response; details: for Corn plant response rating: visual injury, 0 to 100 scale (0 no effect, 100 complete control), approx. ten days
How it was run: as §1

[2] = test system: giant foxtail (Setaria faberii); test: Test A pre-/postemergence plant response; details: for Foxtail, Giant plant response rating: visual injury, 0 to 100 scale (0 no effect, 100 complete control), approx. ten days
How it was run: as §1

[3] = test system: large crabgrass (Digitaria sanguinalis); test: Test A pre-/postemergence plant response; details: for Crabgrass, Large plant response rating: visual injury, 0 to 100 scale (0 no effect, 100 complete control), approx. ten days
How it was run: as §1

[4] = test system: morningglory (Ipomoea spp.); test: Test A pre-/postemergence plant response; details: for Morningglory plant response rating: visual injury, 0 to 100 scale (0 no effect, 100 complete control), approx. ten days
How it was run: as §1

[5] = test system: pigweed (Amaranthus retroflexus); test: Test A pre-/postemergence plant response; details: for Pigweed plant response rating: visual injury, 0 to 100 scale (0 no effect, 100 complete control), approx. ten days
How it was run: as §1

[6] = test system: velvetleaf (Abutilon theophrasti); test: Test A pre-/postemergence plant response; details: for Velvetleaf plant response rating: visual injury, 0 to 100 scale (0 no effect, 100 complete control), approx. ten days
How it was run: as §1

[7] = test system: wheat (Triticum aestivum); test: Test A pre-/postemergence plant response; details: for Wheat plant response rating: visual injury, 0 to 100 scale (0 no effect, 100 complete control), approx. ten days
How it was run: as §1

[8] = test system: barnyardgrass (Echinochloa crus-galli); test: Test B flooded paddy test; details: for Plant response rating, Flood, Barnyardgrass: 250 g ai/ha, flooded paddy test, visual rating on 0 to 100 scale (0 no effect, 100 complete control) after 13 to 15 days; for Plant response rating, Barnyardgrass: Flood (flooded paddy test), 13 to 15 days; for Barnyardgrass plant response rating: Flood, 31 g ai/ha, scale 0 to 100 (0 no effect, 100 complete control)
How it was run: (§2)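 Flooded-pot test: water raised to 3 cm above soil when treating, compound put in the water, level unchanged thereafter. Plants were at 2 leaves. Readout after 13 to 15 days, visual, relative to controls; 0 signifies no effect and 100 complete control.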

[9] = test system: ducksalad (Heteranthera limosa); test: Test B flooded paddy test; details: for Plant response rating, Flood, Ducksalad: 250 g ai/ha, flooded paddy test, visual rating on 0 to 100 scale (0 no effect, 100 complete control) after 13 to 15 days; for Plant response rating, Ducksalad: Flood (flooded paddy test), 13 to 15 days; for Ducksalad plant response rating: Flood, 31 g ai/ha, scale 0 to 100 (0 no effect, 100 complete control)
How it was run: as §2

rice (Oryza sativa) = test: Test B flooded paddy test; details: for Plant response rating, Flood, Rice: 250 g ai/ha, flooded paddy test, visual rating on 0 to 100 scale (0 no effect, 100 complete control) after 13 to 15 days; for Plant response rating, Rice: Flood (flooded paddy test), 13 to 15 days; for Rice plant response rating: Flood, 31 g ai/ha, scale 0 to 100 (0 no effect, 100 complete control)
How it was run: as §2

[10] = test system: umbrella sedge (Cyperus difformis); test: Test B flooded paddy test; details: for Plant response rating, Flood, Sedge, Umbrella: 250 g ai/ha, flooded paddy test, visual rating on 0 to 100 scale (0 no effect, 100 complete control) after 13 to 15 days; for Plant response rating, Sedge, Umbrella: Flood (flooded paddy test), 13 to 15 days; for Sedge, Umbrella plant response rating: Flood, 31 g ai/ha, scale 0 to 100 (0 no effect, 100 complete control)
How it was run: as §2

[11] = Postemergence, 125 g ai/ha, 0 to 100 scale where 0 is no effect and 100 is complete control
[12] = Preemergence, 125 g ai/ha, 0 to 100 scale, 0 = no effect, 100 = complete control
[13] = Preemergence, 500 g ai/ha, 0 to 100 scale, 0 = no effect, 100 = complete control
[14] = 62 g ai/ha, scale of 0 to 100 where 0 is no effect and 100 is complete control
[15] = 125 g ai/ha, scale 0 to 100, 0 is no effect, 100 is complete control

COc1cccc(-c2ncc(C(=O)C3=C(O)CCCC3=O)c(=O)n2C2CCCCC2)c1 [Compound 196]
Plant response rating, Barnyardgrass [1, 11]: 80
Barnyardgrass plant response rating ([1]; Postemergence, 500 g ai/ha): 90
Plant response rating, Barnyardgrass [1, 12]: 0
Plant response rating, Barnyardgrass [1, 13]: 50
Plant response rating, Corn (corn (Zea mays); [11]): 10
Corn plant response rating (corn (Zea mays); Postemergence, 500 g ai/ha): 40
Plant response rating, Corn (corn (Zea mays); [12]): 0
Plant response rating, Corn (corn (Zea mays); [13]): 20
Plant response rating, Foxtail, Giant [2, 11]: 70
Foxtail, Giant plant response rating ([2]; Postemergence, 500 g ai/ha): 100
Plant response rating, Foxtail, Giant [2, 12]: 0
Plant response rating, Foxtail, Giant [2, 13]: 80
Plant response rating, Crabgrass, Large [3, 11]: 50
Crabgrass, Large plant response rating ([3]; Postemergence, 500 g ai/ha): 90
Plant response rating, Crabgrass, Large [3, 12]: 0
Plant response rating, Crabgrass, Large [3, 13]: 70
Plant response rating, Morningglory [4, 11]: 100
Morningglory plant response rating ([4]; Postemergence, 500 g ai/ha): 100
Plant response rating, Morningglory [4, 12]: 0
Plant response rating, Morningglory [4, 13]: 40
Plant response rating, Pigweed [5, 11]: 80
Pigweed plant response rating ([5]; Postemergence, 500 g ai/ha): 100
Plant response rating, Pigweed [5, 12]: 0
Plant response rating, Pigweed [5, 13]: 30
Plant response rating, Velvetleaf [6, 11]: 100
Velvetleaf plant response rating ([6]; Postemergence, 500 g ai/ha): 100
Plant response rating, Velvetleaf [6, 12]: 0
Plant response rating, Velvetleaf [6, 13]: 50
Plant response rating, Wheat [7, 11]: 0
Wheat plant response rating ([7]; Postemergence, 500 g ai/ha): 30
Plant response rating, Wheat [7, 12]: 0
Plant response rating, Wheat [7, 13]: 20
Plant response rating, Flood, Barnyardgrass [8]: 30
Plant response rating, Barnyardgrass [8, 14]: 0
Plant response rating, Barnyardgrass [8, 15]: 20
Barnyardgrass plant response rating [8]: 0
Plant response rating, Flood, Ducksalad [9]: 95
Plant response rating, Ducksalad [9, 14]: 60
Plant response rating, Ducksalad [9, 15]: 95
Ducksalad plant response rating [9]: 40
Plant response rating, Flood, Rice (rice (Oryza sativa)): 65
Plant response rating, Rice (rice (Oryza sativa); [14]): 0
Plant response rating, Rice (rice (Oryza sativa); [15]): 40
Rice plant response rating (rice (Oryza sativa)): 0
Plant response rating, Flood, Sedge, Umbrella [10]: 80
Plant response rating, Sedge, Umbrella [10, 14]: 30
Plant response rating, Sedge, Umbrella [10, 15]: 75
Sedge, Umbrella plant response rating [10]: 20

O=C1CCCC(O)=C1C(=O)c1cnc(-c2ccc(F)c(F)c2)n(C2CCCCC2)c1=O [Compound 198]
Plant response rating, Barnyardgrass [1, 11]: 70
Barnyardgrass plant response rating ([1]; Postemergence, 500 g ai/ha): 100
Plant response rating, Barnyardgrass [1, 12]: 0
Plant response rating, Barnyardgrass [1, 13]: 50
Plant response rating, Corn (corn (Zea mays); [11]): 0
Corn plant response rating (corn (Zea mays); Postemergence, 500 g ai/ha): 30
Plant response rating, Corn (corn (Zea mays); [12]): 0
Plant response rating, Corn (corn (Zea mays); [13]): 20
Plant response rating, Foxtail, Giant [2, 11]: 60
Foxtail, Giant plant response rating ([2]; Postemergence, 500 g ai/ha): 90
Plant response rating, Foxtail, Giant [2, 12]: 70
Plant response rating, Foxtail, Giant [2, 13]: 70
Plant response rating, Crabgrass, Large [3, 11]: 70
Crabgrass, Large plant response rating ([3]; Postemergence, 500 g ai/ha): 100
Plant response rating, Crabgrass, Large [3, 12]: 10
Plant response rating, Crabgrass, Large [3, 13]: 90
Plant response rating, Morningglory [4, 11]: 100
Morningglory plant response rating ([4]; Postemergence, 500 g ai/ha): 100
Plant response rating, Morningglory [4, 12]: 0
Plant response rating, Morningglory [4, 13]: 30
Plant response rating, Pigweed [5, 11]: 90
Pigweed plant response rating ([5]; Postemergence, 500 g ai/ha): 100
Plant response rating, Pigweed [5, 12]: 10
Plant response rating, Pigweed [5, 13]: 100
Plant response rating, Velvetleaf [6, 11]: 100
Velvetleaf plant response rating ([6]; Postemergence, 500 g ai/ha): 100
Plant response rating, Velvetleaf [6, 12]: 0
Plant response rating, Velvetleaf [6, 13]: 80
Plant response rating, Wheat [7, 11]: 0
Wheat plant response rating ([7]; Postemergence, 500 g ai/ha): 0
Plant response rating, Wheat [7, 12]: 0
Plant response rating, Wheat [7, 13]: 20
Plant response rating, Flood, Barnyardgrass [8]: 35
Plant response rating, Barnyardgrass [8, 14]: 0
Plant response rating, Barnyardgrass [8, 15]: 30
Barnyardgrass plant response rating [8]: 0
Plant response rating, Flood, Ducksalad [9]: 95
Plant response rating, Ducksalad [9, 14]: 50
Plant response rating, Ducksalad [9, 15]: 85
Ducksalad plant response rating [9]: 40
Plant response rating, Flood, Rice (rice (Oryza sativa)): 50
Plant response rating, Rice (rice (Oryza sativa); [14]): 20
Plant response rating, Rice (rice (Oryza sativa); [15]): 20
Rice plant response rating (rice (Oryza sativa)): 15
Plant response rating, Flood, Sedge, Umbrella [10]: 80
Plant response rating, Sedge, Umbrella [10, 14]: 20
Plant response rating, Sedge, Umbrella [10, 15]: 80
Sedge, Umbrella plant response rating [10]: 20
